Measured values as given in PubChem BioAssay (NCI).
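Cultured in 96-well plates, cells were exposed to test compound for 48 hours across five concentrations. At the TGI there is no net growth.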

Experiments:
Test in all cases: inhibition of tumour cell growth, NCI panel, 48 h
SR leukemia = test system: SR leukemia
SW-620 colon = test system: SW-620 colon
MDA-MB-231 breast = test system: MDA-MB-231 breast
UACC-257 melanoma = test system: UACC-257 melanoma
BT-549 breast = test system: BT-549 breast
TK-10 renal = test system: TK-10 renal
UACC-62 melanoma = test system: UACC-62 melanoma
HS 578T breast = test system: HS 578T breast
MALME-3M melanoma = test system: MALME-3M melanoma
MCF7 breast = test system: MCF7 breast
HCT-15 colon = test system: HCT-15 colon
NCI-H460 lung = test system: NCI-H460 lung
IGROV1 ovarian = test system: IGROV1 ovarian
COLO 205 colon = test system: COLO 205 colon
CCRF-CEM leukemia = test system: CCRF-CEM leukemia
SF-268 CNS = test system: SF-268 CNS
786-0 renal = test system: 786-0 renal
HOP-62 NSCLC = test system: HOP-62 NSCLC
UO-31 renal = test system: UO-31 renal
SK-MEL-5 melanoma = test system: SK-MEL-5 melanoma
HT29 colon = test system: HT29 colon
CAKI-1 renal = test system: CAKI-1 renal
MDA-N = test system: MDA-N
HL-60(TB) leukemia = test system: HL-60(TB) leukemia
T-47D breast = test system: T-47D breast
RXF 393 renal = test system: RXF 393 renal
SK-MEL-2 melanoma = test system: SK-MEL-2 melanoma
NCI-H23 lung = test system: NCI-H23 lung
OVCAR-3 ovarian = test system: OVCAR-3 ovarian
NCI/ADR-RES ovarian = test system: NCI/ADR-RES ovarian
SK-OV-3 ovarian = test system: SK-OV-3 ovarian
U251 CNS = test system: U251 CNS
M14 melanoma = test system: M14 melanoma
SNB-19 CNS = test system: SNB-19 CNS
HCC-2998 colon = test system: HCC-2998 colon
SNB-75 CNS = test system: SNB-75 CNS
RPMI-8226 leukemia = test system: RPMI-8226 leukemia
SK-MEL-28 melanoma = test system: SK-MEL-28 melanoma
HOP-92 NSCLC = test system: HOP-92 NSCLC
OVCAR-4 ovarian = test system: OVCAR-4 ovarian
SN12C renal = test system: SN12C renal
NCI-H226 lung = test system: NCI-H226 lung
NCI-H522 lung = test system: NCI-H522 lung
HCT-116 colon = test system: HCT-116 colon
DU-145 prostate = test system: DU-145 prostate
SF-295 CNS = test system: SF-295 CNS
A498 renal = test system: A498 renal
KM12 colon = test system: KM12 colon
SF-539 CNS = test system: SF-539 CNS
MOLT-4 leukemia = test system: MOLT-4 leukemia
LOX IMVI melanoma = test system: LOX IMVI melanoma
EKVX NSCLC = test system: EKVX NSCLC
ACHN renal = test system: ACHN renal
K-562 leukemia = test system: K-562 leukemia
PC-3 prostate = test system: PC-3 prostate
OVCAR-5 ovarian = test system: OVCAR-5 ovarian
A549 NSCLC = test system: A549 NSCLC
MDA-MB-435 = test system: MDA-MB-435
OVCAR-8 ovarian = test system: OVCAR-8 ovarian

CO/C(N)=C(\C#N)N=Cc1ccccc1
TGI (SR leukemia): > 100 µM | TGI (SW-620 colon): > 100 µM | TGI (MDA-MB-231 breast): > 100 µM | TGI (UACC-257 melanoma): > 100 µM | TGI (BT-549 breast): > 100 µM | TGI (TK-10 renal): > 100 µM | TGI (UACC-62 melanoma): > 100 µM | TGI (HS 578T breast): > 100 µM | TGI (MALME-3M melanoma): > 100 µM | TGI (MCF7 breast): > 100 µM | TGI (HCT-15 colon): > 100 µM | TGI (NCI-H460 lung): > 100 µM | TGI (IGROV1 ovarian): > 100 µM | TGI (COLO 205 colon): > 100 µM | TGI (CCRF-CEM leukemia): > 100 µM | TGI (SF-268 CNS): > 100 µM | TGI (786-0 renal): > 100 µM | TGI (HOP-62 NSCLC): > 100 µM | TGI (UO-31 renal): > 100 µM | TGI (SK-MEL-5 melanoma): > 100 µM | TGI (HT29 colon): > 100 µM | TGI (CAKI-1 renal): > 100 µM | TGI (MDA-N): > 100 µM | TGI (HL-60(TB) leukemia): > 100 µM | TGI (T-47D breast): > 100 µM | TGI (RXF 393 renal): > 100 µM | TGI (SK-MEL-2 melanoma): > 100 µM | TGI (NCI-H23 lung): > 100 µM | TGI (OVCAR-3 ovarian): > 100 µM | TGI (NCI/ADR-RES ovarian): > 100 µM | TGI (SK-OV-3 ovarian): > 100 µM | TGI (U251 CNS): > 100 µM | TGI (M14 melanoma): > 100 µM | TGI (SNB-19 CNS): > 100 µM | TGI (HCC-2998 colon): > 100 µM | TGI (SNB-75 CNS): > 100 µM | TGI (RPMI-8226 leukemia): > 100 µM | TGI (SK-MEL-28 melanoma): > 100 µM | TGI (HOP-92 NSCLC): > 100 µM | TGI (OVCAR-4 ovarian): > 100 µM | TGI (SN12C renal): > 100 µM | TGI (NCI-H226 lung): > 100 µM | TGI (NCI-H522 lung): > 100 µM | TGI (HCT-116 colon): > 100 µM | TGI (DU-145 prostate): > 100 µM | TGI (SF-295 CNS): > 100 µM | TGI (A498 renal): > 100 µM | TGI (KM12 colon): > 100 µM | TGI (SF-539 CNS): > 100 µM | TGI (MOLT-4 leukemia): > 100 µM | TGI (LOX IMVI melanoma): > 100 µM | TGI (EKVX NSCLC): > 100 µM | TGI (ACHN renal): > 100 µM | TGI (K-562 leukemia): > 100 µM | TGI (PC-3 prostate): > 100 µM | TGI (OVCAR-5 ovarian): > 100 µM | TGI (A549 NSCLC): > 100 µM | TGI (MDA-MB-435): > 100 µM | TGI (OVCAR-8 ovarian): > 100 µM

Clc1ccc(C2c3ccccc3-c3nc4ccccc4n32)cc1 (stereo not drawn)
TGI (SR leukemia): > 54.4 µM | TGI (SW-620 colon): > 100 µM | TGI (MDA-MB-231 breast): > 100 µM | TGI (UACC-257 melanoma): > 100 µM | TGI (BT-549 breast): > 100 µM | TGI (TK-10 renal): > 100 µM | TGI (UACC-62 melanoma): > 69.4 µM | TGI (HS 578T breast): > 100 µM | TGI (MALME-3M melanoma): 82.3 µM | TGI (MCF7 breast): > 68.1 µM | TGI (HCT-15 colon): > 100 µM | TGI (NCI-H460 lung): > 100 µM | TGI (IGROV1 ovarian): > 86.1 µM | TGI (COLO 205 colon): > 100 µM | TGI (CCRF-CEM leukemia): > 100 µM | TGI (SF-268 CNS): > 63.9 µM | TGI (786-0 renal): 51 µM | TGI (HOP-62 NSCLC): 62.8 µM | TGI (UO-31 renal): > 60.5 µM | TGI (SK-MEL-5 melanoma): > 100 µM | TGI (HT29 colon): > 88.9 µM | TGI (CAKI-1 renal): > 100 µM | TGI (MDA-N): > 100 µM | TGI (HL-60(TB) leukemia): > 83.3 µM | TGI (T-47D breast): > 100 µM | TGI (RXF 393 renal): 17.8 µM | TGI (SK-MEL-2 melanoma): > 65.4 µM | TGI (NCI-H23 lung): > 100 µM | TGI (OVCAR-3 ovarian): 37.2 µM | TGI (NCI/ADR-RES ovarian): > 68.2 µM | TGI (SK-OV-3 ovarian): > 39 µM | TGI (U251 CNS): > 100 µM | TGI (M14 melanoma): 99 µM | TGI (SNB-19 CNS): > 64.8 µM | TGI (HCC-2998 colon): > 75.2 µM | TGI (SNB-75 CNS): > 100 µM | TGI (RPMI-8226 leukemia): > 65 µM | TGI (SK-MEL-28 melanoma): > 100 µM | TGI (HOP-92 NSCLC): > 100 µM | TGI (OVCAR-4 ovarian): > 73 µM | TGI (SN12C renal): > 100 µM | TGI (NCI-H226 lung): > 64.5 µM | TGI (NCI-H522 lung): 67.9 µM | TGI (HCT-116 colon): > 53.3 µM | TGI (DU-145 prostate): > 100 µM | TGI (SF-295 CNS): > 36.6 µM | TGI (A498 renal): > 79.9 µM | TGI (KM12 colon): > 100 µM | TGI (SF-539 CNS): > 95.4 µM | TGI (MOLT-4 leukemia): > 51.7 µM | TGI (LOX IMVI melanoma): 59.2 µM | TGI (EKVX NSCLC): > 73.9 µM | TGI (ACHN renal): > 100 µM | TGI (K-562 leukemia): > 100 µM | TGI (PC-3 prostate): > 77.1 µM | TGI (OVCAR-5 ovarian): > 75 µM | TGI (A549 NSCLC): > 78.7 µM | TGI (MDA-MB-435): > 100 µM | TGI (OVCAR-8 ovarian): > 79.5 µM
